This is an account of results in PubChem BioAssay (NCI).

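In this assay, cells in 96-well plates receive the compound at five concentrations for 48 hours. Endpoints are linearly interpolated between the surrounding concentrations. Abbreviation: GI50, concentration required for 50% inhibition of growth. At the TGI there is no net growth.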

Holding throughout (test): inhibition of tumour cell growth, NCI panel, 48 h
For experiment [1], the system named is SR leukemia.
Experiment [2] concerns SK-OV-3 ovarian.
Experiment [3] concerns HL-60(TB) leukemia.
The subject of experiment [4] is NCI-H23 lung.
Experiment [5] concerns HOP-62 NSCLC.
The test system of experiment [6] is OVCAR-8 ovarian.
The test system of experiment [7] is M14 melanoma.
The test system of experiment [8] is NCI/ADR-RES ovarian.
Experiment [9] relates to OVCAR-3 ovarian.
The test system of experiment [10] is UO-31 renal.

With `COc1ccccc1Nc1nc2ccccc2c2occc12`, the GI50 in experiment [1] is 9.33 µM; in [2] it was 16.1 µM; in experiment [3], 20.5 µM; in experiment [4], 16.3 µM; in experiment [5] it was 24.5 µM; in [6], 17.6 µM. Moreover, the GI50 is 17.3 µM in experiment [7], 13.8 µM in experiment [8], 20.2 µM in [9] and 14.7 µM in experiment [10]. Moreover, the TGI in experiment [1] was 20.3 µM; in experiment [2] it was greater than 50 µM; in experiment [3] it was greater than 50 µM; in experiment [4], 35.9 µM; in experiment [5], greater than 50 µM; in experiment [6], greater than 50 µM. For the same compound, the TGI in experiment [7] was 40.4 µM; in experiment [8], 32.4 µM; in experiment [9] it was greater than 50 µM; in [10], 24 µM.

As to `CC(=O)N1N=C(c2ccc(Nc3nc(Nc4ccc(F)cc4)nc(Nc4ccc(Cl)cc4)n3)cc2)CC1c1ccc(N(C)C)cc1` (stereo not given), the GI50 was 2.1 µM in [1]; 6.82 µM in experiment [2]; 5.04 µM in experiment [3]; 2.96 µM in [4]; 3.25 µM in experiment [5]; 3.75 µM in experiment [6]. Moreover, the GI50 in experiment [7] was 3.05 µM; in [8], 1.65 µM; in experiment [9], 9.51 µM; in [10], 3.11 µM. In addition, the TGI in [1] was 5.18 µM; in experiment [2], greater than 31.2 µM; in [3], 15.7 µM; in [4], 16.1 µM; in experiment [5], 13.2 µM; in [6], 23.4 µM. The TGI worked out at 10.8 µM in [7], 15.7 µM in [8], 31.7 µM in experiment [9] and 16.6 µM in [10].

For `Oc1cc2c(cc1C(c1ccc3c(c1)OCO3)N1CCN(C(c3ccc4c(c3)OCO4)c3cc4c(cc3O)OCO4)CC1)OCO2` (stereo not given), the TGI in [1] was 14.6 µM; in experiment [2] it was 94.8 µM; in experiment [3] it was greater than 100 µM; in experiment [4], 35.4 µM; in experiment [5], 64.7 µM; in [6], 29.9 µM. Besides, the TGI worked out at 27.5 µM in experiment [7], 55.4 µM in [8], 30.8 µM in experiment [9] and 29.3 µM in [10].

Regarding `NC(=S)N/N=C/c1ccc(OC(=O)COc2ccccc2)cn1`, the GI50 was 0.596 µM in experiment [1]; 40.9 µM in [2]; 1.18 µM in [3]; 4.49 µM in experiment [4]; 11.1 µM in experiment [5]; 3.26 µM in experiment [6]. In addition, the GI50 in experiment [7] is 3.57 µM; in experiment [8], 4.14 µM; in experiment [9] it was 2.17 µM; in experiment [10], 3.91 µM. Besides, the TGI is greater than 100 µM in experiment [1]; greater than 100 µM in [2]; greater than 100 µM in experiment [3]; greater than 100 µM in experiment [4]; 80.8 µM in experiment [5]; greater than 100 µM in experiment [6]. For the same compound, the TGI was 12.1 µM in [7], greater than 100 µM in [8], greater than 100 µM in experiment [9] and 39.2 µM in [10].

On to `COc1cc2oc(-c3cccc(C(=O)Nc4ccc(C)cc4)c3)cc(=O)c2c(OC)c1OC`, for which the GI50 was 2.53 µM in experiment [1]; 3.13 µM in experiment [2]; 1.86 µM in experiment [3]; 4.43 µM in experiment [4]; 3.68 µM in experiment [5]; 2.9 µM in experiment [6]. Besides, the GI50 was 0.503 µM in experiment [7], 1.46 µM in experiment [8], 5.39 µM in experiment [9] and 3.5 µM in experiment [10]. Further, the TGI is 40.6 µM in experiment [1]; 68.4 µM in experiment [2]; 4.59 µM in experiment [3]; 51.4 µM in experiment [4]; 28.3 µM in experiment [5]; greater than 100 µM in [6]. For the same compound, the TGI is 2.23 µM in experiment [7], greater than 100 µM in experiment [8], greater than 100 µM in experiment [9] and greater than 100 µM in experiment [10].

As for `O=C(O)c1cc2cc(O)ccc2[nH]1`, the GI50 in [1], in experiment [2], in [3], in experiment [4], in experiment [5] and in experiment [6] was greater than 100 µM throughout. Moreover, the GI50 in experiment [7], in [8], in experiment [9] and in experiment [10] was greater than 100 µM throughout. The TGI in experiment [1], in [2], in experiment [3], in experiment [4], in experiment [5] and in [6] was greater than 100 µM in each case. The TGI in [7], in experiment [8], in experiment [9] and in [10] was greater than 100 µM each time.

For `COc1cc2c(c(OC)c1OC)C(=O)c1c-2n(CCCN=[N+]=[N-])c(=O)c2cc([N+](=O)[O-])ccc12`, the GI50 in [1] was 16.3 µM; in [2], 62.7 µM; in experiment [3], greater than 100 µM; in experiment [4], 50.8 µM; in experiment [5], 30.7 µM; in [6] it was 72.3 µM. Besides, the GI50 in experiment [7] is greater than 100 µM; in [8], 53 µM; in experiment [9] it was greater than 100 µM; in experiment [10] it was 69.7 µM. The TGI was 41.9 µM in experiment [1]; greater than 100 µM in experiment [2]; greater than 100 µM in experiment [3]; greater than 100 µM in [4]; greater than 100 µM in experiment [5]; greater than 100 µM in [6]. Besides, the TGI in [7], in [8], in experiment [9] and in experiment [10] was greater than 100 µM each time.

For the compound `Nc1cc(N)cc(Cc2ccccc2)c1`, the TGI in experiment [1], in [2], in experiment [3], in [4], in experiment [5] and in experiment [6] was greater than 100 µM each time. Moreover, the TGI in experiment [7], in [8], in experiment [9] and in [10] was greater than 100 µM each time.
